Experimental data taken from patent KR20140032201A, “로리오라이드를 유효성분으로 함유하는 세포 노화 억제용 조성물” (영남대학교 산학협력단, priority 2012, dated 2014).
Like-named read-outs stand apart in the source and are kept apart here.

Legend:
[1] = tested on: human fibroblasts (사람 섬유아세포); experiment: MTT cytotoxicity, human fibroblasts; assay type: cell-based; details: 10 ug/ml
[2] = tested on: human umbilical vein endothelial cells (제대정맥혈관내피세포); experiment: MTT cytotoxicity, umbilical vein endothelial cells; assay type: cell-based; details: 10 ug/ml
[3] = tested on: human fibroblasts (사람 섬유아세포); experiment: Adriamycin-induced senescence, SA-β-gal activity staining, human fibroblasts; assay type: cell-based
[4] = tested on: human fibroblasts with replicative senescence (복제노화가 유도된 사람 섬유아세포); experiment: Replicative senescence, SA-β-gal activity staining, old human fibroblasts; assay type: cell-based; details: increasing concentrations
[5] = tested on: reactive oxygen species in human fibroblasts (활성산소, 사람 섬유아세포); experiment: Intracellular reactive oxygen species by DCF flow cytometry, adriamycin-treated human fibroblasts; assay type: cell-based; details: 500 nM adriamycin 4 h, 3 days, DCF fluorescence
[6] = tested on: human umbilical vein endothelial cells (제대정맥혈관내피세포); experiment: Adriamycin-induced senescence, SA-β-gal activity staining, umbilical vein endothelial cells; assay type: cell-based; details: 500 nM adriamycin 4 h, then 10 ug/ml, 3 days
[7] = tested on: Caenorhabditis elegans (꼬마선충); details: C. elegans, literature; cited from earlier work
[8] = tested on: cellular senescence (세포노화); details: cited from earlier work
[9] = tested on: mouse model (생쥐모델); details: literature; cited from earlier work

With `CC1(C)CC(O)CC2(C)OC(=O)C=C12` (single isomer, unassigned; (-)) [로리오라이드[(-)-loliolide], (-)-loliolide] the “cytotoxicity (MTT)” value [1] was “세포독성이 관찰되지 않았다”, the “cytotoxicity (MTT)” value [2] was “세포독성이 관찰되지 않았다” and the “SA-β-gal activity staining increased by adriamycin” value ([3]; 500 nM adriamycin 4 h, then 10 ug/ml, 3 days) was “감소되었으나”. For the same molecule, the “concentration dependence of inhibition of adriamycin-increased SA-β-gal activity” value ([3]; increasing concentrations) was “농도를 증가시킬수록 감소함”, the “SA-β-gal activity increased in old cells (replicative senescence)” value [4] was “농도 의존적으로 늙은 세포에서 증가된 SA-β-gal 활성을 감소시킴” and the “reactive oxygen species increased by adriamycin” value [5] was “활성산소도 감소시킴”. The “SA-β-gal activity staining increased by adriamycin” value [6] was “변화가 없었다”.

For `Nc1ccc(S(=O)(=O)c2ccc(N)cc2)cc1` [4,4'-diaminodiphenylsulfone], the healthspan [7] is listed as “건강수명을 늘리는” and the “occurrence of ageing-related diseases” value [7] is listed as “노화관련 질환의 발생을 억제하며”.

For `CC(=O)N[C@@H](CS)C(=O)O` [N-아세틸시스테인(N-acetylcysteine), N-acetylcysteine], the “inhibition of cellular senescence” value ([8]; literature; NAC)) is listed as “세포노화 억제 효능이 있는 것으로 보고된” and the “inhibition of cellular senescence” value ([8]; literature) is listed as “세포노화를 억제한다”.

In the case of `CS(=O)(=O)Nc1ccc([N+](=O)[O-])cc1OC1CCCCC1` [NS398], the “inhibition of cellular senescence” value ([8]; literature) is listed as “세포노화를 억제한다”.

For `CO[C@H]1C[C@@H]2CC[C@@H](C)[C@@](O)(O2)C(=O)C(=O)N2CCCC[C@H]2C(=O)O[C@H]([C@H](C)C[C@@H]2CC[C@@H](O)[C@H](OC)C2)CC(=O)[C@H](C)/C=C(\C)[C@@H](O)[C@@H](OC)C(=O)[C@H](C)C[C@H](C)/C=C/C=C/C=C/1C` [라파마이신(rapamycin), rapamycin], the healthspan [9] is given as “건강수명을 늘리는”, the “occurrence of ageing-related diseases” value [9] is given as “노화관련 질환의 발생을 억제하며” and the “inhibition of cellular senescence” value ([8]; literature) is given as “세포노화 억제 효능이 있는 것으로 보고된”.

In the case of `O=C1O[C@H]([C@@H](O)CO)C(O)=C1O` [비타민 C], the “inhibition of cellular senescence” value ([8]; literature) is listed as “세포노화를 억제한다”.

For “epifriedelanol [에피프리에델라놀(epifriedelanol)]”, the “inhibition of cellular senescence” value ([8]; literature) is listed as “세포노화를 억제한다”.
